A value given as a limit tells only on which side of the number the result lay.

This assay relates to Ba/F3 cells expressing EGFR Del19/C797S (EGFR DC). Nature of the assay: Inhibition of proliferation of Ba/F3 cells expressing EGFR Del19/C797S (CellTiter-Glo, 72 h). It is filed as cell-based. To be noted: Mus musculus, BaF3, 72 hours treatment. As to the method:
The following experiment was performed to evaluate the inhibitory activity of the compounds according to the present invention on the proliferation of Ba/F3 cells expressing EGFR Del19/C797S (EGFR DC) and EGFR L858R/C797S (EGFR LC) mutations.
Ba/F3 cells were cultured using medium (RPMI-1640) containing 10% fetal bovine serum (FBS) and 5 ng/ml IL-3 (R&D Systems). The transduced Ba/F3 cells were cultured by adding 1 μg/ml puromycin (Invitrogen) to the same medium.
24 hours prior to treatment with compounds, 3,000 to 5,000 cells were seeded on a well plate (white clear bottom 96 well plate, Corning). The compounds were diluted in dimethyl sulfoxide (3-fold dilution, total of 12 concentrations) and injected at 1 μl each so that the final concentration was 0.2 nM to 5 μM. After 72 hours post treatment with compounds, living cells were stored at room temperature for 10 minutes using CellTiter-Glo luminescent cell-viability reagent (Promega), and the luminescence intensity thereof was measured using a reader (Synergy Neo, Biotek). Each test was repeated three times. The result values were calculated as a cell growth rate (%) compared to the control group. A graph was created using the GraphPad Prism version 8.3.0 program, and GI50 values were calculated.
One may read the GI50 as the concentration that inhibits growth by half. Turning to `COc1cc(N2CCC3(CCC(OC)CC3)CC2)c(-c2cnn(C)c2)cc1Nc1cc(N2OCC[C@@H]2c2cccc(F)c2F)ncn1` [Example 42, (R)-6-(3-(2,3-difluorophenyl)isoxazolidin-2-yl)-N-(2-methoxy-4-(9-methoxy-3-azaspiro[5.5]undecan-3-yl)-5-(1-methyl-1H-pyrazol-4-yl)phenyl)pyrimidin-4-amine], the 50% growth inhibitory concentration (GI50) lay in the range of 100 to 1000 nM.
Under `COc1cc(N2CCC(C3COC3)CC2)c(-c2cn(C)nc2F)cc1Nc1cc(N2OCC[C@@H]2c2cccc(F)c2F)ncn1` [Example 17, (R)-6-(3-(2,3-difluorophenyl)isoxazolidin-2-yl)-N-(5-(3-fluoro-1-methyl-1H-pyrazol-4-yl)-2-methoxy-4-(4-(oxetan-3-yl)piperidin-1-yl)phenyl)pyrimidin-4-amine] stands 100 to 1000 nM.
Under `COc1cc(N2CCC(N3CC(OC)C3)CC2)c(-c2cnn(C)c2)cc1Nc1cc(N2OCC[C@@H]2c2cccc(F)c2F)ncn1` [Example 102, (R)-6-(3-(2,3-difluorophenyl)isoxazolidin-2-yl)-N-(2-methoxy-4-(4-(3-methoxyazetidin-1-yl)piperidin-1-yl)-5-(1-methyl-1H-pyrazol-4-yl)phenyl)pyrimidin-4-amine] stands under 100 nM; under `CN1CCN(c2c(-c3cnn(C)c3)cc(Nc3cc(N4OCC[C@@H]4c4cccc(F)c4F)ncn3)c3c2OCO3)CC1` [Example 113, (R)-6-(3-(2,3-difluorophenyl)isoxazolidin-2-yl)-N-(6-(1-methyl-1H-pyrazol-4-yl)-7-(4-methylpiperazin-1-yl)benzo[d][1,3]dioxol-4-yl)pyrimidin-4-amine], under 100 nM; under `COc1cc(N2CCC3(CC2)CC(N(C)C)C3)c(-c2cnn(C)c2)cc1Nc1cc(N2OCC[C@@H]2c2cccc(F)c2F)ncn1` [Example 31, (R)-7-(4-((6-(3-(2,3-difluorophenyl)isoxazolidin-2-yl)pyrimidin-4-yl)amino)-5-methoxy-2-(1-methyl-1H-pyrazol-4-yl)phenyl)-N,N-dimethyl-7-azaspiro[3.5]nonan-2-amine], under 100 nM.
As to `COc1cc(N2CCN(C)CC2)c(-c2ccsc2)cc1Nc1cc(N2OCC[C@@H]2c2cccc(F)c2F)ncn1` [Example 76, (R)-6-(3-(2,3-difluorophenyl)isoxazolidin-2-yl)-N-(2-methoxy-4-(4-methylpiperazin-1-yl)-5-(thiophen-3-yl)phenyl)pyrimidin-4-amine], the GI50 lay in the range of 100 to 1000 nM.
Take `COc1cc(N2C[C@H](C)O[C@@H](C)C2)c(-c2cnn(C)c2)cc1Nc1cc(N2OCC[C@@H]2c2cccc(F)c2F)ncn1` [Example 106, 6-((R)-3-(2,3-difluorophenyl)isoxazolidin-2-yl)-N-(4-((2S,6S)-2,6-dimethylmorpholino)-2-methoxy-5-(1-methyl-1H-pyrazol-4-yl)phenyl)pyrimidin-4-amine]: the 50% growth inhibitory concentration (GI50) was 100 to 1000 nM.
Turning to `COc1cc(N2CCC(N3CC[C@H](F)C3)CC2)c(-c2cnn(C)c2)cc1Nc1cc(N2OCC[C@@H]2c2cccc(F)c2F)ncn1` [Example 71, 6-((R)-3-(2,3-difluorophenyl)isoxazolidin-2-yl)-N-(4-(4-((S)-3-fluoropyrrolidin-1-yl)piperidin-1-yl)-2-methoxy-5-(1-methyl-1H-pyrazol-4-yl)phenyl)pyrimidin-4-amine], the GI50 lay in the range of 100 to 1000 nM.
With `COc1cc(N2CCC3(CC2)CN(C)CCO3)c(-c2cnn(C)c2)cc1Nc1cc(N2OCC[C@@H]2c2cccc(F)c2F)ncn1` [Example 83, (R)-6-(3-(2,3-difluorophenyl)isoxazolidin-2-yl)-N-(2-methoxy-5-(1-methyl-1H-pyrazol-4-yl)-4-(4-methyl-1-oxa-4,9-diazaspiro[5.5]undecan-9-yl)phenyl)pyrimidin-4-amine], the GI50 is 100 to 1000 nM.
For `COc1cc(N2CC[C@H](OC)[C@H](F)C2)c(-c2cnn(C)c2)cc1Nc1cc(N2OCC[C@@H]2c2cccc(F)c2F)ncn1` [Example 67, 6-((R)-3-(2,3-difluorophenyl)isoxazolidin-2-yl)-N-(4-((3R,4S)-3-fluoro-4-methoxypiperidin-1-yl)-2-methoxy-5-(1-methyl-1H-pyrazol-4-yl)phenyl)pyrimidin-4-amine], the GI50 was under 100 nM.
Regarding `COc1cc(N2CCSCC2)c(-c2cnn(C)c2)cc1Nc1cc(N2OCC[C@@H]2c2cccc(F)c2F)ncn1` [Example 85, (R)-6-(3-(2,3-difluorophenyl)isoxazolidin-2-yl)-N-(2-methoxy-5-(1-methyl-1H-pyrazol-4-yl)-4-thiomorpholinophenyl)pyri-midin-4-amine], the GI50 lay within 100 to 1000 nM.
In the case of `COc1cc2c(cc1Nc1cc(N3OCC[C@@H]3c3cccc(F)c3F)ncn1)-c1cnn(C)c1CCN2C(C)C` [Example 47, (R)-N-(6-(3-(2,3-difluorophenyl)isoxazolidin-2-yl)pyrimidin-4-yl)-6-isopropyl-8-methoxy-3-methyl-3,4,5,6-tetrahydrobenzo[b]pyrazolo [4,3-d]azepin-9-amine], the GI50 was in the range of 100 to 1000 nM.
`COc1cc(N2CCOCC2)c(-c2cn(C)nc2F)cc1Nc1cc(N2OCC[C@@H]2c2cccc(F)c2F)ncn1` [Example 16, (R)-6-(3-(2,3-difluorophenyl)isoxazolidin-2-yl)-N-(5-(3-fluoro-1-methyl-1H-pyrazol-4-yl)-2-methoxy-4-morpholinophenyl)pyrimidin-4-amine]: the GI50 was under 100 nM.
`COc1cc(N2CCOC3(CC3)C2)c(-c2cnn(C)c2)cc1Nc1cc(N2OCC[C@@H]2c2cccc(F)c2F)ncn1` [Example 43, (R)-6-(3-(2,3-difluorophenyl)isoxazolidin-2-yl)-N-(2-methoxy-5-(1-methyl-1H-pyrazol-4-yl)-4-(4-oxa-7-azaspiro[2.5]octan-7-yl)phenyl)pyrimidin-4-amine]: the GI50 fell in the range of 100 to 1000 nM.
`COc1cc(N2CCC(N3CCOCC3)CC2)c(-c2cnn(C)c2)cc1Nc1cc(N2OCC[C@@H]2c2cccc(F)c2F)ncn1` [Example 46, (R)-6-(3-(2,3-difluorophenyl)isoxazolidin-2-yl)-N-(2-methoxy-5-(1-methyl-1H-pyrazol-4-yl)-4-(4-morpholinopiperidin-1-yl)phenyl)pyrimidin-4-amine]: the GI50 is under 100 nM.
Consider `COc1cc(N2CCC(CN3CCC(CC(F)(F)F)C3)CC2)c(-c2cnn(C)c2)cc1Nc1cc(N2OCC[C@@H]2c2cccc(F)c2F)ncn1` (stereo partly drawn) [Example 63, 6-((R)-3-(2,3-difluorophenyl)isoxazolidin-2-yl)-N-(2-methoxy-5-(1-methyl-1H-pyrazol-4-yl)-4-(4-((3-(2,2,2-trifluoroethyl)pyrrolidin-1-yl)methyl)piperidin-1-yl)phenyl)pyrimidin-4-amine], for which the GI50 was under 100 nM.
Take `COc1cc(N2CCC(N3CC[C@H](OC)C3)CC2)c(-c2cnn(C)c2)cc1Nc1cc(N2OCC[C@@H]2c2cccc(F)c2F)ncn1` [Example 70, 6-((R)-3-(2,3-difluorophenyl)isoxazolidin-2-yl)-N-(2-methoxy-4-(4-((S)-3-methoxypyrrolidin-1-yl)piperidin-1-yl)-5-(1-methyl-1H-pyrazol-4-yl)phenyl)pyrimidin-4-amine]: the 50% growth inhibitory concentration (GI50) lay within 100 to 1000 nM.
Under `COc1cc(N2CCC(CN(C)C(C)(C)CF)CC2)c(-c2cnn(C)c2)cc1Nc1cc(N2OCC[C@@H]2c2cccc(F)c2F)ncn1` [Example 110, (R)-6-(3-(2,3-difluorophenyl)isoxazolidin-2-yl)-N-(4-(4-(((1-fluoro-2-methylpropan-2-yl)(methyl)amino)methyl)pi-peridin-1-yl)-2-methoxy-5-(1-methyl-1H-pyrazol-4-yl)phenyl)pyrimidin-4-amine] stands 100 to 1000 nM.

The values above are taken from US20250368635A1, “HETEROARYL DERIVATIVE COMPOUND, AND USES THEREOF” (VORONOI, INC., priority 2022, published 2025).
